In patent US20160002204A1 (Board of Regents, The University of Texas System, priority 2014, published 2016):

Assays:
[1] = target: T1, GLS1 (purified recombinant human GAC) (Homo sapiens, UniProt O94925); assay: GLS1 enzymatic activity assay (dual-coupled, Amplex UltraRed/resorufin); assay type: biochemical
T1 sequence (O94925 55-598 isoform O94925-3 limits assumed): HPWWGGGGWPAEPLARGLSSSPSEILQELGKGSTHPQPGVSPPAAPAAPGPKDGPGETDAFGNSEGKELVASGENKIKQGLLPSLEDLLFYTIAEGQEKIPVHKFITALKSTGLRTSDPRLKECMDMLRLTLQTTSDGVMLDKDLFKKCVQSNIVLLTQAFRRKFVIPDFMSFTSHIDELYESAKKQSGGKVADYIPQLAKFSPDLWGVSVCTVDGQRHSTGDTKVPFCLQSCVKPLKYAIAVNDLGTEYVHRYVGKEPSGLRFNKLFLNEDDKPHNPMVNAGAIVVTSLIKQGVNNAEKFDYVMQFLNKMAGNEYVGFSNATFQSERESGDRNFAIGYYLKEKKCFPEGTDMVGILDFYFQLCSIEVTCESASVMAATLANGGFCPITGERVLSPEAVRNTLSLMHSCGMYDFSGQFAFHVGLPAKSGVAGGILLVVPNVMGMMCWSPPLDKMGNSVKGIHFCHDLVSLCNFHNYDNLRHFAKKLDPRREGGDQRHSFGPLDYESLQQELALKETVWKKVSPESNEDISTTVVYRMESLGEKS
Method in brief: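 Recombinant human GAC (2 nM) preincubated with 50 mM potassium phosphate, then inhibitor (10 min each, RT); 1 mM glutamine, pH 7.4 Hepes buffer, 1% DMSO. Glutamate coupled via glutamate oxidase/HRP to resorufin (Ex 530/Em 590), kinetic or 20-min endpoint; IC50 by four-parameter logistic fit.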

A549 cells = assay: A549 proliferation (viability) assay, Cell Titer Fluor, 72 hours; assay type: cell-based; conditions: Homo sapiens
Method in brief: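 Seed A549 at 1000 cells/well and culture 24 h. Add compound (final DMSO 0.5%) and incubate 72 h at 37 °C. Add Cell Titer Fluor, mix 15 min, incubate 30 min, read fluorescence and fit EC50 by four-parameter logistic.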

Structure (SMILES)	IC50 [1]	EC50 (A549 cells)
CC(=O)N1CCC(CC(=O)Nc2ccn(CCC(F)Cn3cc(C(=O)NCc4cccc(OC(F)(F)F)c4)nn3)c(=O)c2)CC1 (centres unmarked) [Example 244, 1-(4-{4-[2-(1-acetylpiperidin-4-yl)acetamido]-2-oxo-1,2-dihydropyridin-1-yl}-2-fluorobutyl)-N-{[3-(trifluoromethoxy)phenyl]methyl}-1H-1,2,3-triazole-4-carboxamide]	< 100 nM	500 to 5000 nM
O=C(Cc1ccccc1)Nc1ccn(CC(F)CCn2cc(C(=O)NCc3cc(Br)ccn3)nn2)c(=O)c1 (centres unmarked) [Example 160, N-[(4-bromopyridin-2-yl)methyl]-1-{3-fluoro-4-[2-oxo-4-(2-phenylacetamido)-1,2-dihydropyridin-1-yl]butyl}-1H-1,2,3-triazole-4-carboxamide]	< 100 nM	500 to 5000 nM
O=C(CC1CCCC1)Nc1ccn(CCCCn2cc(C(=O)NCc3cccc(OC(F)(F)F)c3)nn2)c(=O)c1 [Example 210, 1-{4-[4-(2-cyclopentylacetamido)-2-oxo-1,2-dihydropyridin-1-yl]butyl}-N-{[3-(trifluoromethoxy)phenyl]methyl}-1H-1,2,3-triazole-4-carboxamide]	< 100 nM	< 100 nM
O=C(CC1CCCCC1)Nc1ccn(CCC(F)Cn2cc(C(=O)NCc3cc(OC(F)(F)F)ccc3F)nn2)c(=O)c1 (centres unmarked) [Example 176, 1-{4-[4-(2-cyclohexylacetamido)-2-oxo-1,2-dihydropyridin-1-yl]-2-fluorobutyl}-N-{[2-fluoro-5-(trifluoromethoxy)phenyl]methyl}-1H-1,2,3-triazole-4-carboxamide]	< 100 nM	< 100 nM
O=C(CC1CCCCC1)Nc1ccn(CCCCn2cc(C(=O)NCc3cc(Cl)ccc3F)nn2)c(=O)c1 [Example 181, N-[(5-chloro-2-fluorophenyl)methyl]-1-{4-[4-(2-cyclohexylacetamido)-2-oxo-1,2-dihydropyridin-1-yl]butyl}-1H-1,2,3-triazole-4-carboxamide]	< 100 nM	100 to 500 nM
CO[C@H](C(=O)Nc1ccn(CCC(F)Cn2cc(C(=O)NCc3cccc(OC(F)(F)F)c3)nn2)c(=O)c1F)c1ccccc1 (stereo partly drawn) [Example 285, 1-(2-fluoro-4-{3-fluoro-4-[(2S)-2-methoxy-2-phenylacetamido]-2-oxo-1,2-dihydropyridin-1-yl}butyl)-N-{[3-(trifluoromethoxy)phenyl]methyl}-1H-1,2,3-triazole-4-carboxamide]	< 100 nM	< 100 nM
O=C(Cc1ccccc1)Nc1ccc(CCCCn2ccc(NC(=O)OCc3ccccc3)nc2=O)nn1 [Example 96, benzyl N-(2-oxo-1-{4-[6-(2-phenylacetamido)pyridazin-3-yl]butyl}-1,2-dihydropyrimidin-4-yl)carbamate]	< 100 nM	100 to 500 nM
O=C(CC1CCCCC1)Nc1ccn(CCC(F)Cn2cc(C(=O)NCc3cc(C(F)(F)F)ccn3)nn2)c(=O)c1F (centres unmarked) [Example 258, 1-{4-[4-(2-cyclohexylacetamido)-3-fluoro-2-oxo-1,2-dihydropyridin-1-yl]-2-fluorobutyl}-N-{[4-(trifluoromethyl)pyridin-2-yl]methyl}-1H-1,2,3-triazole-4-carboxamide]	< 100 nM	< 100 nM
O=C(CN1CCC(F)C1)Nc1ccn(CCC(F)Cn2cc(C(=O)NCc3cccc(OC(F)(F)F)c3)nn2)c(=O)c1 (centres unmarked) [Example 227, 1-(2-fluoro-4-{4-[2-(3-fluoropyrrolidin-1-yl)acetamido]-2-oxo-1,2-dihydropyridin-1-yl}butyl)-N-{[3-(trifluoromethoxy)phenyl]methyl}-1H-1,2,3-triazole-4-carboxamide]	< 100 nM	100 to 500 nM
CC(C)(C)OC(=O)Nc1ccn(CCC(F)Cn2cc(C(=O)NCc3cc(Cl)ccc3F)nn2)c(=O)c1 (centres unmarked) [Example 233, tert-butyl N-{1-[4-(4-{[(5-chloro-2-fluorophenyl)methyl]carbamoyl}-1H-1,2,3-triazol-1-yl)-3-fluorobutyl]-2-oxo-1,2-dihydropyridin-4-yl}carbamate]	< 100 nM	500 to 5000 nM
Cc1ccc(CNC(=O)c2cn(CCCCn3ccc(NC(=O)Cc4ccccc4)cc3=O)nn2)cn1 [Example 158, N-[(6-methylpyridin-3-yl)methyl]-1-{4-[2-oxo-4-(2-phenylacetamido)-1,2-dihydropyridin-1-yl]butyl}-1H-1,2,3-triazole-4-carboxamide]	< 100 nM	500 to 5000 nM
O=C(CC1CCOCC1)Nc1ccn(CCCCn2cc(C(=O)NCc3cccc(OC(F)(F)F)c3)nn2)c(=O)c1 [Example 48, 1-(4-{4-[2-(oxan-4-yl)acetamido]-2-oxo-1,2-dihydropyridin-1-yl}butyl)-N-{[3-(trifluoromethoxy)phenyl]methyl}-1H-1,2,3-triazole-4-carboxamide]	< 100 nM	500 to 5000 nM
O=C(CC1CCCC1)Nc1ccn(CCCCc2nnc(NC(=O)NCc3ccccn3)s2)c(=O)c1F [Example 131, 2-cyclopentyl-N-(3-fluoro-2-oxo-1-(4-(5-(3-(pyridin-2-ylmethyl)ureido)-1,3,4-thiadiazol-2-yl)butyl)-1,2-dihydropyridin-4-yl)acetamide]	< 100 nM	500 to 5000 nM
O=C(Cc1ccccn1)Nc1ccn(CCC(F)Cn2cc(C(=O)NCc3cccc(OC(F)(F)F)c3)nn2)c(=O)c1 (centres unmarked) [Example 250, 1-(2-fluoro-4-{2-oxo-4-[2-(pyridin-2-yl)acetamido]-1,2-dihydropyridin-1-yl}butyl)-N-{[3-(trifluoromethoxy)phenyl]methyl}-1H-1,2,3-triazole-4-carboxamide]	< 100 nM	100 to 500 nM

Other lines, results leading:

IC50 [1]	EC50 (A549 cells)	Structure (SMILES)
< 100 nM	100 to 500 nM	O=C(NCc1cc(C(F)(F)F)ccn1)c1cn(CC(F)CCn2ccc(COc3ccc(F)cc3F)cc2=O)nn1 (centres unmarked) [Example 484, 1-{4-[4-(2,4-difluorophenoxymethyl)-2-oxo-1,2-dihydropyridin-1-yl]-2-fluorobutyl}-N-{[4-(trifluoromethyl)pyridin-2-yl]methyl}-1H-1,2,3-triazole-4-carboxamide]
< 100 nM	100 to 500 nM	O=C(Cc1c(F)cccc1F)Nc1ccn(CCC(F)Cn2cc(C(=O)NCc3cccc(OC(F)(F)F)c3)nn2)c(=O)c1F (stereo not drawn) [Example 335, l-(4-{4-[2-(2,6-difluorophenyl)acetamido]-3-fluoro-2-oxo-1,2-dihydropyridin-1-yl}-2-fluorobutyl)-N-{[3-(trifluoromethoxy)phenyl]methyl}-1H-1,2,3-triazole-4-carboxamide]
500 to 5000 nM	> 5000 nM	NC(=O)c1cn(CC(F)CCn2ccc(NC(=O)CC3CCC3)c(F)c2=O)nn1 (centres unmarked) [Example 391, 1-{4-[4-(2-cyclobutylacetamido)-3-fluoro-2-oxo-1,2-dihydropyridin-1-yl]-2-fluorobutyl}-1H-1,2,3-triazole-4-carboxamide]
< 100 nM	< 100 nM	CC1(C)CN(CC(=O)Nc2ccn(CCC(F)Cn3cc(C(=O)NCc4cccc(OC(F)(F)F)c4)nn3)c(=O)c2F)CCO1 (centres unmarked) [Example 294, 1-(4-{4-[2-(2,2-dimethylmorpholin-4-yl)acetamido]-3-fluoro-2-oxo-1,2-dihydropyridin-1-yl}-2-fluorobutyl)-N-{[3-(trifluoromethoxy)phenyl]methyl}-1H-1,2,3-triazole-4-carboxamide]
< 100 nM	< 100 nM	O=C(Cc1ccccc1)Nc1ccn(CCC(F)Cn2cc(C(=O)NCc3cccc(C(F)(F)F)n3)nn2)c(=O)c1F (centres unmarked) [Example 317, 1-{2-fluoro-4-[3-fluoro-2-oxo-4-(2-phenylacetamido)-1,2-dihydropyridin-1-yl]butyl}-N-{[6-(trifluoromethyl)pyridin-2-yl]methyl}-1H-1,2,3-triazole-4-carboxamide]
500 to 5000 nM	100 to 500 nM	CC(C)(C)OC(=O)N1CCC(CC(=O)Nc2ccn(CC(F)CCn3cc(C(=O)NCc4cccc(OC(F)(F)F)c4)nn3)c(=O)c2F)CC1 (centres unmarked) [Example 314, tert-butyl 4-{[(3-fluoro-1-{2-fluoro-4-[4-({[3-(trifluoro-methoxy)phenyl]methyl}carbamoyl)-1H-1,2,3-triazol-1-yl]butyl}-2-oxo-1,2-dihydropyridin-4-yl)carbamoyl]methyl}piperidine-1-carboxylate]
< 100 nM	100 to 500 nM	O=C(Nc1ccn(CCC(F)Cn2cc(C(=O)NCc3cccc(OC(F)(F)F)c3)nn2)c(=O)c1F)c1ccccc1 (centres unmarked) [Example 353, 1-[4-(4-benzamido-3-fluoro-2-oxo-1,2-dihydropyridin-1-yl)-2-fluorobutyl]-N-{[3-(trifluoromethoxy)phenyl]methyl}-1H-1,2,3-triazole-4-carboxamide]
100 to 500 nM	500 to 5000 nM	Cc1ccc(CNC(=O)c2cn(CC(F)CCn3ncc(NC(=O)CC4CCC4)cc3=O)nn2)cn1 (centres unmarked) [Example 402, 1-{4-[4-(2-cyclobutylacetamido)-6-oxo-1,6-dihydropyridazin-1-yl]-2-fluorobutyl}-N-[(6-methylpyridin-3-yl)methyl]-1H-1,2,3-triazole-4-carboxamide]
